Eight compounds from ChEMBL document CHEMBL1938265, “Synthesis and biological evaluation of novel indolocarbazoles with anti-angiogenic activity” (Eur J Med Chem, 2012) can be followed below.

The source made the active and inactive calls. The rule behind the calls is not given here.

For one data set, the system named is ST486. Nature of the data set: Antiproliferative activity against human ST486 cells after 48 to 72 hrs by MTT assay. In kind it is functional, cell-based. (Tetrazolium dyes change colour on reduction, which living cells bring about.)
For data set [1], the system named is DLD-1. Briefly: Antiproliferative activity against human DLD1 cells after 48 to 72 hrs by MTT assay. In kind it is functional, cell-based.
Data set [2] concerns HUVEC. Nature of the data set: Antiproliferative activity against human HUVEC after 48 to 72 hrs by MTT assay. The format is functional, cell-based.
Data set [3] has as its system LoVo. Briefly: Antiproliferative activity against human LoVo cells after 48 to 72 hrs by MTT assay. The format is functional, cell-based.
The subject of data set [4] is HUVEC. Briefly: Antiangiogenic activity against HUVEC assessed as inhibition of capillary tube formation at 20 uM after 24 hrs by Matrigel assay. The format is functional, cell-based. The following applies: Homo sapiens.
A short description of data set [5]: Antitumor activity against mouse LL/2 cells allografted in Lewis mouse assessed as change in tumor weight at 5 ug/ml, ip administered daily 24 hrs post implantation (reference value: 7.1 +/- 1.1 g). In kind it is functional, Lewis lung carcinoma.
A short description of data set [6]: Antitumor activity against mouse LL/2 cells allografted in Lewis mouse assessed as decrease in lung metastasis number at 5 ug/ml, ip administered daily 24 hrs post implantation (reference value: 11.8 +/- 7.1 number). The format is functional, Lewis lung carcinoma.
Data set [7] deals with HUVEC. Briefly: Antiangiogenic activity against HUVEC assessed as inhibition of capillary tube formation at 20 uM after 48 hrs by Matrigel assay. In kind it is functional, cell-based. The following applies: Homo sapiens.
The subject of data set [8] is Mus musculus. Briefly: Toxicity in Lewis mouse allografted with mouse LL/2 cells assessed as change in body weight at 5 ug/ml, ip administered daily 24 hrs post implantation measured on day 18 (reference value: 22.7 +/- 0.2 g). The format is organism-based. The following applies: in vivo.
A short description of data set [9]: Antitumor activity against mouse LL/2 cells allografted in Lewis mouse assessed as change in tumor weight at 4 mg/ml, ip administered daily 24 hrs post implantation (reference value: 7.1 +/- 1.1 g). In kind it is functional, Lewis lung carcinoma.
In data set [10] the test system is Mus musculus. Nature of the data set: Toxicity in Lewis mouse allografted with mouse LL/2 cells assessed as change in body weight at 4 mg/ml, ip administered daily 24 hrs post implantation measured on day 18 (reference value: 22.7 +/- 0.2 g). In kind it is organism-based. The following applies: in vivo.
A short description of data set [11]: Antitumor activity against mouse LL/2 cells allografted in Lewis mouse assessed as decrease in lung metastasis number at 4 mg/ml, ip administered daily 24 hrs post implantation (reference value: 11.8 +/- 7.1 number). The format is functional, Lewis lung carcinoma.
The test system of data set [12] is LoVo. Briefly: Selectivity ratio of IC50 for human LoVo cells to IC50 for HUVEC. In kind it is functional.
For data set [13], the system named is DLD-1. Briefly: Selectivity ratio of IC50 for human DLD1 cells to IC50 for HUVEC. The format is functional.

In the case of `CN(C)CCN1C(=O)c2c(c3c4ccccc4n(CCOCCO)c3c3[nH]c4ccccc4c23)C1=O`, the half-inhibitory concentration (IC50) (commonly the concentration at which inhibition is half-maximal) is 3000 nM in the data set with ST486, 20000 nM with DLD-1 [1], 100 nM in the data set on HUVEC [2] and 300 nM with LoVo [3].
For `CN(C)CCN1C(=O)c2c(c3c4ccccc4[nH]c3c3[nH]c4ccccc4c23)C1=O`, the result in the data set with HUVEC [4] and in the data set on HUVEC [7] was Active. For the same compound, the Activity amounted to 7.3 g in data set [5], 9.4 in data set [6] and 27.29 g with Mus musculus [8]. The IC50 in the data set on ST486 worked out at 1000 nM; with DLD-1 [1] it was 3000 nM; in the data set with HUVEC [2] it was 7000 nM; in the data set on LoVo [3], 500 nM.
Turning to `CN(C)CCOCCn1c2ccccc2c2c3c(c4c5ccccc5[nH]c4c21)C(=O)NC3=O`, the IC50 with ST486 and in the data set with HUVEC [2] was 2000 nM in each case.
Compound `CN[C@@H]1C[C@H]2O[C@@](C)([C@@H]1OC)n1c3ccccc3c3c4c(c5c6ccccc6n2c5c31)C(=O)NC4` [STAUROSPORINE] registered an IC50 in the data set on ST486 of 7 nM.
For `Cc1ccc(C(=O)Nc2ccc(S(=O)(=O)O)c3cc(S(=O)(=O)O)cc(S(=O)(=O)O)c23)cc1NC(=O)c1cccc(NC(=O)Nc2cccc(C(=O)Nc3cc(C(=O)Nc4ccc(S(=O)(=O)O)c5cc(S(=O)(=O)O)cc(S(=O)(=O)O)c45)ccc3C)c2)c1` [SURAMIN], the figures for the Activity (in data set [9]; in the data set with Mus musculus [10]; in data set [11]) were 5.9 g, 25.5 g and 5, respectively.
For the compound `O=C1NC(=O)c2c1c1c3ccccc3[nH]c1c1c2c2ccccc2n1CCOCCO`, the IC50 in the data set on ST486 was found to be 100 nM; with DLD-1 [1], 2000 nM; in the data set on HUVEC [2] it was 10000 nM; in the data set on LoVo [3] it was 4000 nM.
The corresponding values for `CNCCOCCn1c2ccccc2c2c3c(c4c5ccccc5[nH]c4c21)C(=O)N(CCN(C)C)C3=O` are 3000 nM, 7000 nM, 300 nM and 6000 nM.
As for `CN(C)CCOCCn1c2ccccc2c2c3c(c4c5ccccc5[nH]c4c21)C(=O)N(CCN(C)C)C3=O.Cl.Cl`, the result with HUVEC [4] and with HUVEC [7] was Active. The values for the Activity (in [5]; in data set [6]; in the data set with Mus musculus [8]) were 7.6 g, 9 and 28.5 g, respectively. Also, the half-maximal inhibitory concentration (IC50) in the data set with ST486 stood at 4000 nM; in the data set on DLD-1 [1], 20000 nM; with HUVEC [2], 100 nM; in the data set with LoVo [3], 20000 nM. The “Ratio IC50” value with LoVo [12] and with DLD-1 [13] was 200 each time.
